Columns and labels:
kochia = assay: Test E preemergence herbicide test; format: in vivo, Kochia scoparia; design: key: 0 = no effect, 100 = complete control
From the text: (§1) Seeds of plant species selected from corn (Zea mays), soybean (Glycine max), velvetleaf (Abutilon theophrasti), lambsquarters (Chenopodium album), wild poinsettia (Euphorbia heterophylla), pigweed, palmer (palmer pigweed, Amaranthus palmeri), waterhemp (common waterhemp, Amaranthus rudis), surinam grass (Brachiaria decumbens), crabgrass, large (large crabgrass, Digitaria sanguinalis), crabgrass, Brazil (Brazilian crabgrass, Digitaria horizontalis), panicum, fall (fall panicum, Panicum dichotomiflorum), foxtail, giant (giant foxtail, Setaria faberii), foxtail, green (green foxtail, Setaria viridis), goosegrass (Eleusine indica), johnsongrass (Sorghum halepense), ragweed (common ragweed, Ambrosia elatior), barnyardgrass (Echinochloa crus-galli), sandbur (southern sandbur, Cenchrus echinatus), arrowleaf […] rhombifolia), ryegrass, Italian (Italian ryegrass, Lolium multiflorum), dayflower, VA (Virginia dayflower, Commelina virginica), field bindweed (Convolvulus arvensis), morningglory (Ipomoea coccinea), nightshade (eastern black nightshade, Solanum ptycanthum), kochia (Kochia scoparia), nutsedge, yellow (yellow nutsedge, Cyperus esculentus), cocklebur (common cocklebur, Xanthium strumarium), smartweed (ladysthumb smartweed, Polygonum Persicaria) and beggarticks (hairy beggarticks, Bidens pilosa), were planted into a silt loam soil and treated preemergence with test chemicals formulated in a non-phytotoxic solvent mixture which included a surfactant. Treated plants and controls were maintained in a greenhouse for 21 days, after which time all species were compared to controls and visually evaluated. Plant response ratings, summarized in Table E, are based on a scale of 0 to 100 where 0 is no effect and 100 is complete control. A dash (-) response means no test result.

barnyardgrass = assay: Test E preemergence herbicide test; format: in vivo, Echinochloa crus-galli; design: key: 0 = no effect, 100 = complete control
From the text: as §1

bromegrass, downy = assay: Test C pre-/postemergence herbicide test; format: in vivo, Bromus tectorum; details: Preemergence
How it was run: (§2)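 Pre- and postemergence greenhouse screen. Preemergence treatment went onto freshly planted seeds in loam–sand soil; postemergence treatment went onto plants 2 to 18 cm tall at the 1- to 4-leaf stage in sphagnum peat/vermiculite medium. Scoring at 13 to 15 days used a 0–100 control scale.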

cocklebur = assay: Test C pre-/postemergence herbicide test; format: in vivo, Xanthium strumarium; details: Preemergence
How it was run: as §2

barley, winter = assay: Test D pre-/postemergence herbicide test; format: in vivo, Hordeum vulgare; details: for Plant response rating: Barley, Winter, scale 0 to 100; for Plant response rating, Barley, Winter: scale 0 to 100 (0 no effect, 100 complete control)
How it was run: (§3)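 Dual-timing greenhouse test: preemergence application to seeds in silt loam soil, postemergence application to 1- to 4-leaf plants in peat-based medium. Chemicals were formulated with surfactant in non-phytotoxic solvent. Control was rated visually 0–100 relative to untreated plants after 7 to 21 days.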

canarygrass = assay: Test D pre-/postemergence herbicide test; format: in vivo, Phalaris minor; details: for Plant response rating: Canarygrass, scale 0 to 100; for Plant response rating, Canarygrass: scale 0 to 100 (0 no effect, 100 complete control)
How it was run: as §3

[1] = 31 g ai/ha, scale 0 to 100 (0 no effect, 100 complete control)
[2] = 250 g ai/ha, scale 0 to 100 (0 no effect, 100 complete control)

## O=C1NCC(c2ccc(Cl)c(Cl)c2)C1C(=O)Nc1ccccc1F (racemic) [Compound 14]
kochia; 16 g ai/ha
  Plant response rating, Kochia: 0
kochia; 31 g ai/ha
  Plant response rating, Kochia: 0
kochia; 62 g ai/ha
  Plant response rating, Kochia: 0
kochia; 125 g ai/ha
  Plant response rating, Kochia: 0
kochia; 250 g ai/ha
  Plant response rating, Kochia: 0
barnyardgrass; 16 g ai/ha
  Plant response rating, Barnyardgrass: 0
barnyardgrass; 31 g ai/ha
  Plant response rating, Barnyardgrass: 0
barnyardgrass; 62 g ai/ha
  Plant response rating, Barnyardgrass: 0
barnyardgrass; 125 g ai/ha
  Plant response rating, Barnyardgrass: 40
barnyardgrass; 250 g ai/ha
  Plant response rating, Barnyardgrass: 75
bromegrass, downy; 62 g ai/ha, scale 0 to 100
  Plant response rating, Bromegrass, Downy: 0
bromegrass, downy; 125 g ai/ha, scale 0 to 100 (0 no effect, 100 complete control)
  Plant response rating, Bromegrass, Downy: 0
bromegrass, downy; [1]
  Bromegrass, Downy plant response rating: 0
bromegrass, downy; [2]
  Plant response rating, Bromegrass, Downy: 0
cocklebur; 62 g ai/ha, scale 0 to 100
  Plant response rating, Cocklebur: 0
cocklebur; [1]
  Cocklebur plant response rating: 0
cocklebur; [2]
  Plant response rating, Cocklebur: 0

## O=C1NCC(c2ccc(C(F)(F)F)cc2)C1C(=O)Nc1cccc(F)c1F (racemic) [Compound 202]
barley, winter; Postemergence, 31 g ai/ha
  Plant response rating: 0
barley, winter; Postemergence, 62 g ai/ha
  Plant response rating: 0
barley, winter; Postemergence, 125 g ai/ha
  Plant response rating: 0
barley, winter; Postemergence, 250 g ai/ha
  Plant response rating: 0
barley, winter; Preemergence, 62 g ai/ha
  Plant response rating, Barley, Winter: 20
barley, winter; Preemergence, 31 g ai/ha
  Plant response rating, Barley, Winter: 20
barley, winter; Preemergence, 125 g ai/ha
  Plant response rating: 20
barley, winter; Preemergence, 250 g ai/ha
  Plant response rating: 25
kochia; 31 g ai/ha
  Plant response rating, Kochia: 95
kochia; 62 g ai/ha
  Plant response rating, Kochia: 95
kochia; 125 g ai/ha
  Plant response rating, Kochia: 95
kochia; 250 g ai/ha
  Plant response rating, Kochia: 98
barnyardgrass; 31 g ai/ha
  Plant response rating, Barnyardgrass: 40
barnyardgrass; 62 g ai/ha
  Plant response rating, Barnyardgrass: 80
barnyardgrass; 125 g ai/ha
  Plant response rating, Barnyardgrass: 85
barnyardgrass; 250 g ai/ha
  Plant response rating, Barnyardgrass: 98
canarygrass; Postemergence, 31 g ai/ha
  Plant response rating: 0
canarygrass; Postemergence, 62 g ai/ha
  Plant response rating: 0
canarygrass; Postemergence, 125 g ai/ha
  Plant response rating: 0
canarygrass; Postemergence, 250 g ai/ha
  Plant response rating: 0
canarygrass; Preemergence, 62 g ai/ha
  Plant response rating, Canarygrass: 10
canarygrass; Preemergence, 31 g ai/ha
  Plant response rating, Canarygrass: 5
canarygrass; Preemergence, 125 g ai/ha
  Plant response rating: 60
canarygrass; Preemergence, 250 g ai/ha
  Plant response rating: 75

## O=C1NCC(c2ccc(C(F)(F)F)cc2)C1C(=O)Nc1cccc(F)c1F (centres unmarked) [Compound 80, N-(2,3-difluorophenyl)-2-oxo-4-[4-(trifluoromethyl)phenyl]-3-pyrrolidinecarboxamide]
barley, winter; Postemergence, 31 g ai/ha
  Plant response rating: 0
barley, winter; Postemergence, 62 g ai/ha
  Plant response rating: 0
barley, winter; Postemergence, 125 g ai/ha
  Plant response rating: 0
barley, winter; Postemergence, 250 g ai/ha
  Plant response rating: 0
barley, winter; Preemergence, 62 g ai/ha
  Plant response rating, Barley, Winter: 5
barley, winter; Preemergence, 31 g ai/ha
  Plant response rating, Barley, Winter: 0
barley, winter; Preemergence, 125 g ai/ha
  Plant response rating: 15
barley, winter; Preemergence, 250 g ai/ha
  Plant response rating: 25
kochia; 31 g ai/ha
  Plant response rating, Kochia: 60
kochia; 62 g ai/ha
  Plant response rating, Kochia: 60
kochia; 125 g ai/ha
  Plant response rating, Kochia: 80
kochia; 250 g ai/ha
  Plant response rating, Kochia: 90
barnyardgrass; 16 g ai/ha
  Plant response rating, Barnyardgrass: 0
barnyardgrass; 31 g ai/ha
  Plant response rating, Barnyardgrass: 20
barnyardgrass; 62 g ai/ha
  Plant response rating, Barnyardgrass: 50
barnyardgrass; 125 g ai/ha
  Plant response rating, Barnyardgrass: 75
barnyardgrass; 250 g ai/ha
  Plant response rating, Barnyardgrass: 80
canarygrass; Postemergence, 31 g ai/ha
  Plant response rating: 0
canarygrass; Postemergence, 62 g ai/ha
  Plant response rating: 0
canarygrass; Postemergence, 125 g ai/ha
  Plant response rating: 0
canarygrass; Postemergence, 250 g ai/ha
  Plant response rating: 0
canarygrass; Preemergence, 62 g ai/ha
  Plant response rating, Canarygrass: 0
canarygrass; Preemergence, 31 g ai/ha
  Plant response rating, Canarygrass: 0
canarygrass; Preemergence, 125 g ai/ha
  Plant response rating: 10
canarygrass; Preemergence, 250 g ai/ha
  Plant response rating: 20

## O=C1NC[C@H](c2cccc(C(F)(F)F)c2)[C@H]1C(=O)Nc1ccccc1F [Compound 204, (3R,4S)—N-(2-fluorophenyl)-2-oxo-4-[3-(trifluoromethyl)phenyl]-3-pyrrolidinecarboxamide]
barley, winter; Preemergence, 62 g ai/ha
  Plant response rating, Barley, Winter: 20
barley, winter; Preemergence, 125 g ai/ha
  Plant response rating, Barley, Winter: 25
barley, winter; Preemergence, 31 g ai/ha
  Plant response rating, Barley, Winter: 0
barley, winter; Preemergence, 250 g ai/ha
  Plant response rating: 35
kochia; 31 g ai/ha
  Plant response rating, Kochia: 0
kochia; 62 g ai/ha
  Plant response rating, Kochia: 0
kochia; 125 g ai/ha
  Plant response rating, Kochia: 90
kochia; 250 g ai/ha
  Plant response rating, Kochia: 40
barnyardgrass; 31 g ai/ha
  Plant response rating, Barnyardgrass: 20
barnyardgrass; 62 g ai/ha
  Plant response rating, Barnyardgrass: 75
barnyardgrass; 125 g ai/ha
  Plant response rating, Barnyardgrass: 98
barnyardgrass; 250 g ai/ha
  Plant response rating, Barnyardgrass: 98
canarygrass; Preemergence, 62 g ai/ha
  Plant response rating, Canarygrass: 10
canarygrass; Preemergence, 125 g ai/ha
  Plant response rating, Canarygrass: 10
canarygrass; Preemergence, 31 g ai/ha
  Plant response rating, Canarygrass: 0
canarygrass; Preemergence, 250 g ai/ha
  Plant response rating: 75

## O=C1NC[C@H](c2cccc(C(F)(F)F)c2)[C@H]1C(=O)Nc1cccc(F)c1F [Compound 206]
barley, winter; Preemergence, 62 g ai/ha
  Plant response rating, Barley, Winter: 30
barley, winter; Preemergence, 125 g ai/ha
  Plant response rating, Barley, Winter: 40
barley, winter; Preemergence, 31 g ai/ha
  Plant response rating, Barley, Winter: 15
barley, winter; Preemergence, 250 g ai/ha
  Plant response rating: 65
kochia; 31 g ai/ha
  Plant response rating, Kochia: 0
kochia; 62 g ai/ha
  Plant response rating, Kochia: 0
kochia; 125 g ai/ha
  Plant response rating, Kochia: 50
kochia; 250 g ai/ha
  Plant response rating, Kochia: 80
barnyardgrass; 31 g ai/ha
  Plant response rating, Barnyardgrass: 70
barnyardgrass; 62 g ai/ha
  Plant response rating, Barnyardgrass: 75
barnyardgrass; 125 g ai/ha
  Plant response rating, Barnyardgrass: 95
barnyardgrass; 250 g ai/ha
  Plant response rating, Barnyardgrass: 98
canarygrass; Preemergence, 62 g ai/ha
  Plant response rating, Canarygrass: 75
canarygrass; Preemergence, 125 g ai/ha
  Plant response rating, Canarygrass: 85
canarygrass; Preemergence, 31 g ai/ha
  Plant response rating, Canarygrass: 55
canarygrass; Preemergence, 250 g ai/ha
  Plant response rating: 85
